Laboratory results taken from US20110033418A1, “TREATMENT OF DISEASES CAUSED BY VIRAL INFECTION” (priority 2009, published 2011).

Legend:
LV = assay: Inhibitory effect on LV in tissue culture; format: cell-based
Source text: Antiviral agents Pleconaril (VP-63843) a novel, orally bio-available, broad spectrum anti-picorna-viral agent developed as a therapeutic tool in entero- and rhino viral infections, was used alone or in combination with specific antiserum for intervention.

Ljungan virus (LV) [1] = settings: number of 7 mice; 200 mg per kg orally daily for 50 days from day 35; terminated at day 120
Procedure: An ALS mouse model was used in which the mice are transgenic for superoxide dismutase 1 (SOD1). […] The inventors treated the LV infection in these mice using two different antiviral compounds separately and in combination. One group of mice was kept as a control.
Groups of seven 35 day old B6SJL-Tg-SOD1-G93 mice were treated with two antiviral compounds, Pleconaril and Ribavirin (200 mg of each per kg body weight), orally with a tube connected to a syringe daily for 50 consecutive days. Mice were observed every day for signs of paralysis.
The experiment was terminated at day 120 when all untreated animals were expected to have developed severe paralysis and death.

Ljungan virus (LV) [2] = assay: Diabetes in male CD-1 mice infected with LV in utero and subjected to stress (glucose tolerance test, abdominal fat, serum insulin); format: in vivo
Procedure: Animals CD-1 (ICR) mice were obtained from Br Charles River laboratories, Germany. Glucose tolerance test was performed to diagnose diabetes. In this test 2 g glucose per kg body weight was injected intraperitoneally (as 100 mg glucose/ml solution). Blood glucose was measured (Medisence Precision PCx Abbott Laboratories) before the injection of glucose and after 60 and 120 min. Diabetes was defined as a blood glucose level above 200 mg/dL at 120 min. Abdominal fat in male mice was measured by dissecting out the bilateral scrotal fat cushion. The total weight of both fat cushions was used.
Analysis of insulin Serum insulin was measured using a rat insulin ELISA kit (Mercodia AB).
Transmission of LV to CD-1 mice followed by antiviral treatments Pregnant outbred CD1 mice were infected intraperitoneally with 1000 ID50 (determined by intra cerebral titration in suckling mice) units of LV145 SL two days after conception. Control animals were given an injection of saline. All female mice were kept in individual cages and followed for the development of gestational diabetes, pregnancy outcome and development of diabetes in the offspring. In all the pregnant mice mild stress was induced by adding glucose (100 g/L) to drinking water, performing weekly weights and a glucose tolerance test at the end of the pregnancy. At five weeks of age antiviral therapy to the male offsprings, using LV-specific murine antiserum or the oral antiviral compound Pleconaril (200 mg per kg body weight) or a combination of both, were given once a day for four consecutive days. The control groups of infected and uninfected male offsprings were untreated. From the age of 25 days all mice were subjected to stress by placing 4-5 male mice from different litters in the same cage. At 15 weeks of age the animals were subjected to a glucose tolerance test. Serum insulin levels and abdominal fat were measured.
Statistics The glucose tolerance test in the CD-1 mice was evaluated by Fisher's exact one sided test. Otherwise statistical significance in the CD-1 mice was evaluated by Student's t-test. P values <0.05 were considered significant. Data are presented as means±s.e.m.

| Structure (SMILES) | inhibitory effect on LV (LV) | Mice with paralysis (including death) (Ljungan virus (LV) [1]) | Mice without paralysis (Ljungan virus (LV) [1]) | No. with blood glucose >200 mg/dL at 120 min (percent of group) (Ljungan virus (LV) [2]; glucose tolerance test at 15 weeks of age, LV infected, stressed male CD-1 mice) [%] | Blood glucose at 60 min (Ljungan virus (LV) [2]; glucose tolerance test, 2 g glucose per kg i.p., means±s.e.m.) [mg/dL] | No. with blood glucose >200 mg/dL at 120 min (Ljungan virus (LV) [2]; number of mice, glucose tolerance test at 15 weeks of age, LV infected, stressed male CD-1 mice, treatment once a day for four days at five weeks of age) | Serum insulin (Ljungan virus (LV) [2]; rat insulin ELISA, means±s.e.m.) [µg/L] | Abdominal fat (Ljungan virus (LV) [2]; total weight of bilateral scrotal fat cushions, means±s.e.m.) [g] |
| --- | --- | --- | --- | --- | --- | --- | --- | --- |
| Cc1cc(CCCOc2c(C)cc(-c3noc(C(F)(F)F)n3)cc2C)on1 [Pleconaril, (3-[3,5-dimethyl-4-[[3-(3-methyl-5-isoxazolyl)propyl]oxy]phenyl]-5-(trifluoromethyl)-1,2,4-oxadiazole)] | some inhibitory effect on LV | 5 | 2 | 9 | 211 ± 23.8 | 1 | 4.15 ± 1.52 | 2.1 ± 0.31 |
| NC(=O)c1ncn([C@@H]2O[C@H](CO)[C@@H](O)[C@H]2O)n1 [Ribavirin, 1-[(2R,3R,4S,5R)-3,4-dihydroxy-5-(hydroxymethyl)oxolan-2-yl]-1H-1,2,4-triazole-3-carboxamide] |  | 6 | 1 |  |  |  |  |  |
